A word on the IC50: it is the concentration needed to halve the response being measured. Read a high IC50 as lower potency.

FGFR2, sequence (P21802 399-821 limits assumed): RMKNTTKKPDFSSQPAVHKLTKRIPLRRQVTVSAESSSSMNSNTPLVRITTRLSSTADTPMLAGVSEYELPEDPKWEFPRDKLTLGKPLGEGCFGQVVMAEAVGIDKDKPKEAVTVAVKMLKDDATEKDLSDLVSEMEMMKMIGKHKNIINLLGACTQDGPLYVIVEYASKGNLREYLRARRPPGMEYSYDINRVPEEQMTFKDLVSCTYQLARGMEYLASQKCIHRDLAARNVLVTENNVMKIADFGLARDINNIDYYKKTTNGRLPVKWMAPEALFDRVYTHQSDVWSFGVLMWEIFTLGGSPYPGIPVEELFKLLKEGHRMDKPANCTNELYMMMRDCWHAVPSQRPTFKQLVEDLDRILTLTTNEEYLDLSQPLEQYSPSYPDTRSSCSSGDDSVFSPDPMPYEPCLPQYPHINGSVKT

One assay concerns the target FGFR2 (Homo sapiens, UniProt P21802). The assay is described as follows: FGFR wild type enzyme assay (HTRF KinEASE-TK), FGFR2. Conditions: Enz FGFR2 (nM).
As for `N#Cc1cnn2cc(-c3cnn([C@H]4CCCNC4)c3)cc(Sc3cccc(C(F)(F)F)n3)c12` [Example 68, 6-[1-[(3S)-3-piperidyl]pyrazol-4-yl]-4-[[6-(trifluoromethyl)-2-pyridyl]sulfanyl] pyrazolo[1,5-a]pyridine-3-carbonitrile], half-maximal inhibition (IC50) was put at 68 nM. As to `Cc1ccncc1Sc1cc(-c2cnn([C@H]3CCCNC3)c2)cn2ncc(C#N)c12` [Example 80, 4-[(4-methyl-3-pyridyl)sulfanyl]-6-[1-[(3S)-3-piperidyl]pyrazol-4-yl]pyrazolo[1,5-a]pyridine-3-carbonitrile], the IC50 was 8 nM. In turn, `CCSc1cc(-c2cnn([C@H]3CCCN(C[C@H](O)CO)C3)c2)cn2ncc(C#N)c12` [Example 87, 6-[1-[(3S)-1-[(2S)-2,3-dihydroxypropyl]-3-piperidyl]pyrazol-4-yl]-4-ethylsulfanyl-pyrazolo[1,5-a]pyridine-3-carbonitrile] showed a concentration for half-maximal inhibition (IC50) of 1 nM.

The assay is the same for the next values; noted with them: Enz FGFR2 (nM), FGFR2 wild type enzyme.
In turn, `CN[C@H]1C[C@@H](n2ncc(-c3cc(Sc4ncccc4F)c4c(C#N)cnn4c3)c2C)C1` [Example 208, 4-((3-fluoropyridin-2-yl)thio)-6-(5-methyl-1-((1s,3s)-3-(methylamino)cyclobutyl)-1H-pyrazol-4-yl)pyrazolo[1,5-a]pyridine-3-carbonitrile] gave an IC50 of 1 nM. In other words, the single-digit nanomolar range. `Cc1c(-c2cc(Sc3ccccc3C#N)c3c(C#N)cnn3c2)cnn1[C@H]1CC[C@@H](O)CC1` [Example 188, 4-((2-cyanophenyl)thio)-6-(1-((1s,4s)-4-hydroxycyclohexyl)-5-methyl-1H-pyrazol-4-yl)pyrazolo[1,5-a]pyridine-3-carbonitrile] registered a concentration for half-maximal inhibition (IC50) of 0.5 nM. On to `CC(=O)N1CCC2(CC1)CC(n1ncc(-c3cc(Sc4ncccc4F)c4c(C#N)cnn4c3)c1C)C2` [Example 176, 6-(1-(7-acetyl-7-azaspiro[3.5]nonan-2-yl)-5-methyl-1H-pyrazol-4-yl)-4-((3-fluoropyridin-2-yl)thio)pyrazolo[1,5-a]pyridine-3-carbonitrile], for which 1.5 nM corresponded to half-maximal inhibition (IC50). Against the preceding compound, the IC50 is about 3-fold higher. Same read-out and setting: as for `CC(=O)N[C@H]1CC[C@@H](n2ncc(-c3cc(Sc4ccccc4C#N)c4c(C#N)cnn4c3)c2C)CC1` [Example 273, N-((1s,4s)-4-(4-(3-cyano-4-((2-cyanophenyl)thio)pyrazolo [1,5-a]pyridin-6-yl)-5-methyl-1H-pyrazol-1-yl)cyclohexyl)acetamide], the figure is 0.5 nM; as for `Cc1c(-c2cc(Sc3ccccc3C#N)c3c(C#N)cnn3c2)cnn1[C@H]1CC[C@@](C)(O)CC1` [Example 260, 4-(2-cyanophenyl)sulfanyl-6-[1-(4-hydroxy-4-methyl-cyclohexyl)-5-methyl-pyrazol-4-yl]pyrazolo[1,5-a]pyridine-3-carbonitrile], 1 nM. `CC(=O)N1CCC[C@@H](Cn2ncc(-c3cc(Sc4ccccc4C#N)c4c(C#N)cnn4c3)c2C)C1` [Example 224, (R)-6-(1-((1-acetylpiperidin-3-yl)methyl)-5-methyl-1H-pyrazol-4-yl)-4-((2-cyanophenyl)thio)pyrazolo [1,5-a]pyridine-3-carbonitrile] gave an IC50 of 8 nM.

Take `CC(=O)N1[C@@H]2CC[C@H]1C[C@@H](n1ncc(-c3cc(Sc4ncccc4F)c4c(C#N)cnn4c3)c1C)C2` [Example 262, 6-(1-((1R,3r,5S)-8-acetyl-8-azabicyclo[3.2.1]octan-3-yl)-5-methyl-1H-pyrazol-4-yl)-4-((3-fluoropyridin-2-yl)thio)pyrazolo[1,5-a]pyridine-3-carbonitrile]: it took 3 nM to reach half-maximal inhibition (IC50).

In the case of `Cc1c(-c2cc(Sc3ncccc3F)c3c(C#N)cnn3c2)cnn1C[C@H](C)N(C)C` [Example 182, (S)-6-(1-(2-(dimethylamino)propyl)-5-methyl-1H-pyrazol-4-yl)-4-((3-fluoropyridin-2-yl)thio)pyrazolo[1,5-a]pyridine-3-carbonitrile], half-maximal inhibition (IC50) required 8 nM. The same measure, in the same setting: as for `CC(=O)N1CCO[C@@H](Cn2ncc(-c3cc(Sc4ncccc4F)c4c(C#N)cnn4c3)c2C)C1` [Example 280, (R)-6-(1-((4-acetylmorpholin-2-yl)methyl)-5-methyl-1H-pyrazol-4-yl)-4-((3-fluoropyridin-2-yl)thio)pyrazolo[1,5-a]pyridine-3-carbonitrile], the figure is 12 nM. The compound `CC(=O)N1CCC(n2ncc(-c3cc(Sc4ncc(F)cc4F)c4c(C#N)cnn4c3)c2C)CC1` [Example 164, 6-(1-(1-acetylpiperidin-4-yl)-5-methyl-1H-pyrazol-4-yl)-4-((3,5-difluoropyridin-2-yl)thio)pyrazolo[1,5-a]pyridine-3-carbonitrile] displayed an IC50 of 5 nM.

`Cc1c(-c2cc(Sc3ncccc3F)c3c(C#N)cnn3c2)cnn1[C@H]1CC[C@@H](N(C)C(=O)C(C)(C)N)CC1` [Example 254, 2-amino-N-((1s,4s)-4-(4-(3-cyano-4-((3-fluoropyridin-2-yl)thio)pyrazolo[1,5-a]pyridin-6-yl)-5-methyl-1H-pyrazol-1-y)cyclohexyl)-N,2-dimethylpropanamide] showed an IC50 of 1 nM.

The compound `Cc1c(-c2cc(Sc3ncccc3F)c3c(C#N)cnn3c2)cnn1[C@H](C)C1CCNCC1` [Example 218, (R)-4-((3-fluoropyridin-2-yl)thio)-6-(5-methyl-1-(1-(piperidin-4-yl)ethyl)-1H-pyrazol-4-yl)pyrazolo[1,5-a]pyridine-3-carbonitrile] yielded an IC50 of 3 nM. Compound `Cc1c(-c2cc(Sc3ncccc3F)c3c(C#N)cnn3c2)cnn1[C@H]1CCNC[C@@H]1F` [Example 154, 6-[1-[(3S,4S)-3-fluoro-4-piperidyl]-5-methyl-pyrazol-4-yl]-4-[(3-fluoro-2-pyridyl)sulfanyl]pyrazolo[1,5-a]pyridine-3-carbonitrile] returned a concentration for half-maximal inhibition (IC50) of 2 nM.

`N#Cc1cnn2cc(-c3cnn([C@@H]4CCCNC4)c3)cc(Sc3ncccc3F)c12` [Example 192, (R)-4-((3-fluoropyridin-2-yl)thio)-6-(1-(piperidin-3-yl)-1H-pyrazol-4-yl)pyrazolo[1,5-a]pyridine-3-carbonitrile] yielded a half-maximal inhibitory concentration (IC50) of 2 nM. In other words, the single-digit nanomolar range.

`Cc1c(-c2cc(Sc3ncccc3F)c3c(C#N)cnn3c2)cnn1[C@H]1CC[C@]2(CCNC2)CC1` [Example 219, 4-((3-fluoropyridin-2-yl)thio)-6-(5-methyl-1-((5s,8s)-2-azaspiro[3.4]decan-8-yl)-1H-pyrazol-4-yl)pyrazolo[1,5-a]pyridine-3-carbonitrile] registered an IC50 of 0.5 nM.

In turn, `Cc1c(-c2cc(Sc3ncccc3F)c3c(C#N)cnn3c2)cnn1[C@H]1CC[C@@]2(CCNC2)CC1` [Example 175, 4-((3-fluoropyridin-2-yl)thio)-6-(5-methyl-1-((5r,8r)-2-azaspiro[4.5]decan-8-yl)-1H-pyrazol-4-yl)pyrazolo[1,5-a]pyridine-3-carbonitrile] showed a half-inhibitory concentration (IC50) of 1 nM.

Still in this assay, the particulars now being: Enz FGFR2 (nM), FGFR2 wild type enzyme assay.
On to `N#Cc1cc(F)ccc1Sc1cc(-c2ccc(N3CCOCC3)nc2)cn2ncc(C#N)c12` [Example 405, 4-((2-cyano-4-fluorophenyl)thio)-6-(6-morpholinopyridin-3-yl)pyrazolo[1,5-a]pyridine-3-carbonitrile], for which half-maximal inhibition (IC50) was put at 2 nM. On the same count and under the same terms, in the case of `CC(=O)N1CCC[C@@H](n2cc(-c3cc(Sc4ccccc4C#N)c4c(C#N)cnn4c3)cn2)C1` [Example 537, (R)-6-(1-(1-acetylpiperidin-3-yl)-1H-pyrazol-4-yl)-4-((2-cyanophenyl)thio)pyrazolo [1,5-a]pyridine-3-carbonitrile] it was 1 nM; in that of `Cc1c(-c2cc(Sc3ccc(F)cc3C#N)c3c(C#N)cnn3c2)cnn1C1CCN(CCO)CC1` [Example 353, 4-((2-cyano-4-fluorophenyl)thio)-6-(1-(1-(2-hydroxyethyl)piperidin-4-yl)-5-methyl-1H-pyrazol-4-yl)pyrazolo[1,5-a]pyridine-3-carbonitrile], 1 nM; in that of `CC(=O)N1CCC(n2cc(-c3cc(Sc4ccc(F)cc4C#N)c4c(C#N)cnn4c3)c(C)n2)CC1` [Example 432, 6-(1-(1-acetylpiperidin-4-yl)-3-methyl-1H-pyrazol-4-yl)-4-((2-cyano-4-fluorophenyl)thio)pyrazolo [1,5-a]pyridine-3-carbonitrile], 3 nM.

In turn, `Cc1c(-c2cc(Sc3ccc(F)cc3C#N)c3c(C#N)cnn3c2)cnn1[C@H]1CC[C@H](OP(=O)(O)O)CC1` [Example 679, sodium (1r,4r)-4-(4-(3-cyano-4-((2-cyano-4-fluorophenyl)thio)pyrazolo [1,5-a]pyridin-6-yl)-5-methyl-1H-pyrazol-1-yl)cyclohexyl phosphate] showed a half-maximal inhibitory concentration (IC50) of 1.6 nM. Compared with the last compound, the IC50 is about 1.9-fold lower. For `CC(=O)N1CCC(N(C)c2ccc(-c3cc(Sc4ccccc4C#N)c4c(C#N)cnn4c3)cn2)CC1` [Example 659, 6-(6-((1-acetylpiperidin-4-yl)(methyl)amino)pyridin-3-yl)-4-((2-cyanophenyl)thio)pyrazolo [1,5-a]pyridine-3-carbonitrile], the IC50 came out at 0.3 nM.

Compound `N#Cc1cnn2cc(-c3cnn([C@H]4CCN(C(=O)CO)C4)c3)cc(Sc3ncccc3F)c12` [Example 451, (S)-4-((3-fluoropyridin-2-yl)thio)-6-(1-(1-(2-hydroxyacetyl)pyrrolidin-3-yl)-1H-pyrazol-4-yl)pyrazolo[1,5-a]pyridine-3-carbonitrile] had an IC50 of 1 nM. Compared with the last compound, the IC50 is about 3.3-fold higher. On to `N#Cc1ccccc1Sc1cc(-c2cnn([C@H]3CCNC3)c2)cn2ncc(C#N)c12` [Example 427, (S)-4-((2-cyanophenyl)thio)-6-(1-(pyrrolidin-3-yl)-1H-pyrazol-4-yl)pyrazolo[1,5-a]pyridine-3-carbonitrile], for which 0.4 nM corresponded to half-maximal inhibition (IC50). `CC(=O)N1CCN(c2ncc(-c3cc(Sc4ccccc4C#N)c4c(C#N)cnn4c3)o2)CC1` [Example 601, 6-(2-(4-acetylpiperazin-1-yl)oxazol-5-yl)-4-((2-cyanophenyl)thio)pyrazolo [1,5-a]pyridine-3-carbonitrile] registered an IC50 of 53 nM. This IC50 is about 130-fold higher than that of the compound before. Same read-out and setting: in the case of `N#Cc1cnn2cc(-c3cn([C@H]4CCCNC4)nc3F)cc(Sc3ncccc3F)c12` [Example 577, (S)-6-(3-fluoro-1-(piperidin-3-yl)-1H-pyrazol-4-yl)-4-((3-fluoropyridin-2-yl)thio)pyrazolo[1,5-a]pyridine-3-carbonitrile] it was 7 nM; in that of `N#Cc1ccccc1Sc1cc(-c2cnn(CC(F)(F)F)c2)cn2ncc(C#N)c12` [Example 588], 2 nM.

Values taken from patent publication US20240270741A1 (Cogent Biosciences, Inc., priority 2023, published 2024).
